Values after ≈ are worked out from the molar mass of the structure shown. Active and inactive are the calls of the source. The rule behind the calls is not given here.
Tests used:
[1] = Inhibition of AKT phosphorylation at Thr308 in human BT474 cells; type: cell-based; conditions: BT-474
[2] = Inhibition of AKT phosphorylation at Ser473 in human MDA-MB-468 cells; type: cell-based
[3] = target: RAC-alpha serine/threonine-protein kinase (Homo sapiens, UniProt P31749); assay: Inhibition of AKT1
[4] = Aqueous solubility at pH 7.4
[5] = Lipophilicity, log D of the compound; conditions: octanol/water
[6] = Blood clearance in iv dosed Han Wistar rat
[7] = Fraction unbound in Han Wistar rat plasma; type: ADME, cell-free
[8] = Volume of distribution at steady state in Han Wistar rat; type: ADME, organism-based; conditions: in vivo, read-out: Vdss
Hepatocyte [9] = assay: Intrinsic clearance in Han Wistar rat hepatocytes assessed per 10^-6 cells
[10] = Oral bioavailability in Han Wistar rat; type: ADME, organism-based; conditions: in vivo
Hepatocyte [11] = assay: Intrinsic clearance in human hepatocytes assessed per 10^-6 cells
Mus musculus [12] = assay: Inhibition of AKT phosphorylation at S473 in human BT474c cells xenografted in nude mouse at 200 mg/kg, po after 24 hrs; type: functional, organism-based; set-up: dose 200 mg/kg
Mus musculus [13] = assay: Inhibition of AKT phosphorylation at S473 in human BT474c cells xenografted in nude mouse at 100 mg/kg, po after 4 hrs; type: functional, organism-based; set-up: dose 100 mg/kg
Mus musculus [14] = assay: Inhibition of AKT-mediated GSK3beta phosphorylation in human BT474c cells xenografted in nude mouse at 100 mg/kg, po after 4 hrs; type: functional, organism-based; set-up: dose 100 mg/kg
Mus musculus [15] = assay: Inhibition of AKT-mediated GSK3beta phosphorylation in human BT474c cells xenografted in nude mouse at 200 mg/kg, po after 4 hrs; type: functional, organism-based; set-up: dose 200 mg/kg
BT474c [16] = assay: Antitumor activity against human BT474c cells xenografted in po dosed nude mouse assessed as tumor growth inhibition administered qd for 21 days; type: functional, organism-based
Mus musculus [17] = assay: Inhibition of AKT-mediated GSK3beta phosphorylation in human BT474c cells xenografted in nude mouse at 100 mg/kg, po after 24 hrs; type: functional, organism-based; set-up: dose 100 mg/kg
BT474c [18] = assay: Inhibition of AKT-mediated PRAS40 phosphorylation at T246 in human BT474c cells at 0.01 uM to 10 uM after 24 hrs; type: cell-based
BT474c [19] = assay: Inhibition of AKT phosphorylation at Ser473 in human BT474c cells at 0.01 uM to 10 uM after 24 hrs; type: cell-based
BT474c [20] = assay: Inhibition of AKT-mediated ribosomal S6 protein phosphorylation at S235/236 in human BT474c cells at 0.01 uM to 10 uM after 24 hrs; type: cell-based
Mus musculus [21] = assay: Inhibition of AKT phosphorylation at S473 in human BT474c cells xenografted in nude mouse at 200 mg/kg, po after 4 hrs; type: functional, organism-based; set-up: dose 200 mg/kg
BT474c [22] = assay: Inhibition of AKT phosphorylation at Thr308 in human BT474c cells at 0.01 uM to 10 uM after 24 hrs; type: cell-based
Mus musculus [23] = assay: Inhibition of AKT phosphorylation at S473 in human BT474c cells xenografted in nude mouse at 100 mg/kg, po after 24 hrs; type: functional, organism-based; set-up: dose 100 mg/kg
Mus musculus [24] = assay: Inhibition of AKT-mediated GSK3beta phosphorylation in human BT474c cells xenografted in nude mouse at 200 mg/kg, po after 24 hrs; type: functional, organism-based; set-up: dose 200 mg/kg
BT474c [25] = assay: Antitumor activity against human BT474c cells xenografted in nude mouse assessed as tumor growth inhibition at 200 mg/kg, po qd for 21 days; type: functional, organism-based; set-up: dose 200 mg/kg

RAC-alpha serine/threonine-protein kinase, sequence (P31749 whole entry): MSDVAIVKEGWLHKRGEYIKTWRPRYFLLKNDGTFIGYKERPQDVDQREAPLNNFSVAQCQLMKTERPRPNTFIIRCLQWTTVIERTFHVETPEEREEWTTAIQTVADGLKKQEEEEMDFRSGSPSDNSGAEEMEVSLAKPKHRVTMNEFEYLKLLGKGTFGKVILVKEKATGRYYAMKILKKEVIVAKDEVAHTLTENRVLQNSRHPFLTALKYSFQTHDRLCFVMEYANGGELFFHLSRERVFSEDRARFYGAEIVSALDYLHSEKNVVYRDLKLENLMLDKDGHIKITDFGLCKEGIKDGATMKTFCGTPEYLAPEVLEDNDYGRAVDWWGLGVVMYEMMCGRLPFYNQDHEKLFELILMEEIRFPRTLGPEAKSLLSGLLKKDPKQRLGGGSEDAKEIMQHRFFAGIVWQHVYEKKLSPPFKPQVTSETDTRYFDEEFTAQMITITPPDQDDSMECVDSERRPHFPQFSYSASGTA

| SMILES | IC50 [1] | IC50 [2] | IC50 [3] | solubility [4] | logD [5] | further results |
| --- | --- | --- | --- | --- | --- | --- |
| NC1(c2ccc(-c3ncc4cccnc4c3-c3ccccc3)cc2)CCC1 | 167 nM | 104 nM | 465 nM | 2000 µM (≈ 703 µg/mL) | 1.7 | – |
| NC1(c2ccc(-c3c(-c4ccccc4)ccn4ncnc34)cc2)CCC1 | 479 nM | 661 nM | 2670 nM | 1000 µM (≈ 340 µg/mL) | 1.7 | – |
| NC(=O)c1ccn2c(-c3ccccc3)c(-c3ccc(C4(N)CCC4)cc3)nc2c1 | 82 nM | 92 nM | 348 nM | 110 µM (≈ 42.1 µg/mL) | 2 | – |
| NC1(c2ccc(-c3ncc4ccccc4c3-c3ccccc3)cc2)CCC1 | 535 nM | 179 nM | 301 nM | – | – | – |
| NC1(c2ccc(-c3nn4ccc(=O)nc4cc3-c3ccccc3)cc2)CCC1 | 1620 nM | 2170 nM | 8660 nM | 1900 µM (≈ 700 µg/mL) | 0.2 | – |
| NC1(c2ccc(-c3c(-c4ccccc4)ccn4ccnc34)cc2)CCC1 | 324 nM | 388 nM | 1810 nM | – | – | – |
| NC1(c2ccc(-c3nn4ccnc4cc3-c3ccccc3)cc2)CCC1 | 391 nM | 216 nM | 528 nM | – | – | clearance ([6]; in vivo): 57 mL/min/kg; fraction unbound [7]: 0.123; Vd [8]: 2.3 L/kg; CLH (Hepatocyte [9]): 274 µL/min; bioavailability [10]: 0%; CLH (Hepatocyte [11]): 8 µL/min |
| NC1(c2ccc(-c3nn4cccc4cc3-c3ccccc3)cc2)CCC1 | 2430 nM | 1230 nM | 926 nM | 27 µM (≈ 9.16 µg/mL) | 3.3 | – |
| NC1(c2ccc(-c3ncc4ccncc4c3-c3ccccc3)cc2)CCC1 | 54 nM | 98 nM | 193 nM | 1400 µM (≈ 492 µg/mL) | 2.2 | fraction unbound [7]: 0.105 |
| NC(=O)c1cnc(-c2ccc(C3(N)CCC3)cc2)c(-c2ccccc2)c1 | 422 nM | 322 nM | 1040 nM | – | – | clearance ([6]; whole blood): 21 mL/min/kg; inhibition (Mus musculus [12]): Active; inhibition (Mus musculus [13]): Active; inhibition (Mus musculus [14]): Active; inhibition (Mus musculus [15]): Active; growth inhibition (GI) (BT474c [16]): Dose-dependent effect; inhibition (Mus musculus [17]): Active; inhibition (BT474c [18]): Active; fraction unbound [7]: 0.419; Vd [8]: 11.1 L/kg; CLH (Hepatocyte [9]): 4 µL/min; inhibition (BT474c [19]): Active; bioavailability [10]: 48%; inhibition (BT474c [20]): Active; inhibition (Mus musculus [21]): Active; inhibition (BT474c [22]): Active; inhibition (Mus musculus [23]): Active; CLH (Hepatocyte [11]): 3 µL/min; inhibition (Mus musculus [24]): Active; growth inhibition (GI) (BT474c [25]): Active |
| NC1(c2ccc(-c3nn4ccccc4c3-c3ccccc3)cc2)CCC1 | 205 nM | 151 nM | 199 nM | – | – | clearance ([6]; whole blood): 171 mL/min/kg; Vd [8]: 8 L/kg; bioavailability [10]: 0% |
| NC1(c2ccc(-n3c(-c4ccccc4)nc4ccccc4c3=O)cc2)CCC1 | 5900 nM | 7730 nM | 41700 nM | 1400 µM (≈ 514 µg/mL) | 1.6 | – |
| NC1(c2ccc(-c3c(-c4ccccc4)ccc4ncnn34)cc2)CCC1 | 369 nM | 293 nM | 2140 nM | – | – | – |
| NC1(c2ccc(-c3c(-c4ccccc4)ccc4ccnn34)cc2)CCC1 | 1190 nM | 824 nM | 2720 nM | – | – | – |
| Cn1cnc2c(-c3ccc(C4(N)CCC4)cc3)c(-c3ccccc3)ccc21 | 343 nM | 359 nM | 2800 nM | – | – | – |
| NC1(c2ccc(-c3ncc4ncccc4c3-c3ccccc3)cc2)CCC1 | 89 nM | 47 nM | 188 nM | – | – | – |
| NC1(c2ccc(-c3ncc4cnccc4c3-c3ccccc3)cc2)CCC1 | 48 nM | 37 nM | 117 nM | 2200 µM (≈ 773 µg/mL) | 2.2 | clearance ([6]; whole blood): 40 mL/min/kg; fraction unbound [7]: 0.13; Vd [8]: 0.3 L/kg; CLH (Hepatocyte [11]): 300 µL/min |
| NC1(c2ccc(-c3c(-c4ccccc4)ncc4nccn34)cc2)CCC1 | 2180 nM | 2480 nM | 5400 nM | 2500 µM (≈ 851 µg/mL) | 1.7 | – |
| NC1(c2ccc(-c3ncc4nccn4c3-c3ccccc3)cc2)CCC1 | 386 nM | 365 nM | 1260 nM | 2500 µM (≈ 851 µg/mL) | 1.3 | clearance ([6]; whole blood): 62 mL/min/kg; fraction unbound [7]: 0.371; Vd [8]: 10.3 L/kg; CLH (Hepatocyte [9]): 16 µL/min; bioavailability [10]: 30%; CLH (Hepatocyte [11]): 3 µL/min |
| NC1(c2ccc(-c3nc4ccccc4cc3-c3ccccc3)cc2)CCC1 | 557 nM | 250 nM | 243 nM | 290 µM (≈ 102 µg/mL) | 3.6 | clearance ([6]; in vivo): 26 mL/min/kg; fraction unbound [7]: 0.011; Vd [8]: 3.1 L/kg; CLH (Hepatocyte [9]): 148 µL/min; bioavailability [10]: 0% |
| NC1(c2ccc(-c3ncc4cccn4c3-c3ccccc3)cc2)CCC1 | 604 nM | 483 nM | 787 nM | 1500 µM (≈ 509 µg/mL) | 2.5 | – |
| NC1(c2ccc(-c3nc4ccccc4c(=O)n3-c3ccccc3)cc2)CCC1 | 2620 nM | 2080 nM | 7020 nM | 2300 µM (≈ 845 µg/mL) | 1.5 | – |
| NC1(c2ccc(-c3nc4ccccn4c3-c3ccccc3)cc2)CCC1 | 182 nM | 124 nM | 387 nM | 1900 µM (≈ 645 µg/mL) | 2.8 | clearance ([6]; whole blood): 41 mL/min/kg; fraction unbound [7]: 0.068; Vd [8]: 10.3 L/kg; CLH (Hepatocyte [9]): 291 µL/min; bioavailability [10]: 36%; CLH (Hepatocyte [11]): 18 µL/min |
| CCn1cnc2cnc(-c3ccc(C4(N)CCC4)cc3)c(-c3ccccc3)c21 | 1200 nM | 1540 nM | 8980 nM | – | 2 | – |

Reference: ChEMBL document CHEMBL2034885, “Diverse heterocyclic scaffolds as allosteric inhibitors of AKT” (J Med Chem, 2012)
